Earlier results in US10238670B2, “9-aminomethyl minocycline compounds and methods of use thereof in urinary tract infection (UTI) treatment” (Paratek Pharmaceuticals, Inc., priority 2016, dated 2019).

Test system: human plasma protein
Conditions: cited from earlier work

| SMILES | protein bound in human plasma [%] |
| --- | --- |
| Nc1nc(-n2cc(C(=O)O)c(=O)c3cc(F)c(N4CC(O)C4)c(Cl)c32)c(F)cc1F [delafloxacin] | > 75 |
| Cn1nnc(-c2ccc(-c3ccc(N4C[C@H](CO)OC4=O)cc3F)cn2)n1 [tedizolid] | > 75 |
